Common to all, as to assay type: cell-based
Test [1] concerns Interferon-α. Nature of the test: Induction of Interferon-α using cryopreserved human PBMCs. As to conditions: PBMC, 24 h, 24 h incubation, normalised to 1 uM resiquimod and DMSO, read-out: mean pEC50 (induction of Interferon-α) (converted). Here is the method: Assay for the Induction of Interferon-α Using Cryopreserved Human Peripheral Blood Mononuclear Cells (PBMCs)
Compounds were dissolved in DMSO. Serial 2-fold dilutions with DMSO were prepared and 0.25 μl dispensed into 384-well clear Greiner polypropylene plates.
Blood samples of up to 200 ml were obtained from healthy human donors. Whole blood in 25 ml volumes was overlaid onto 15 ml Ficoll gradients in Leucosep tubes, and centrifuged at 1000 g for 20 min. Cells in the band at the plasma/histopaque interface were carefully removed and washed twice with PBS (centrifuged at 400 g for 5 min to harvest). The final pellet was resuspended in freezing medium (90% Heat-inactivated serum, 10% DMSO) to a cell concentration of 4×10^7 cells/ml. The resuspended cells were then cryopreserved (frozen) using a rate controlled freezer, and stored at −140° C. for up to 4 months.
Incubation and Assay for Interferon-α
Immediately prior to assay, vials of cryopreserved (frozen) PBMCs were thawed rapidly in a water bath at 37° C. A 1:10 dilution of the cells in trypan blue was prepared and counted. The PBMCs were then diluted in growth media [RPMI 1640 containing 10% fetal calf serum (invitrogen), Penicillin+[…] (Gibco cat. #25030-024, 1:50), L-Glutamine 2 mM, and 1000 units/ml recombinant human IFN-gamma (Preprotech catalogue #300-02)] to a density of 1×10^6 cells/ml, and 50 ul/well dispensed to 384-well clear Greiner polypropylene plates containing 0.25 μl DMSO or test compound in 0.25 μl DMSO. […] Plates were incubated for 24 h at 37° C. in 5% CO2.
A multi-isoform immunoassay was used to quantify IFN-α in PBMC supernatants. Rabbit polyclonal antibody against human IFN-α (catalogue number 31101, Stratech Scientific) was diluted 1:10000 in assay buffer (RPMI 1640 containing 10% fetal calf serum, Invitrogen) and 20 μl was added to each well of an MSD (Meso-Scale Discovery) single small-spot 384-well GAR (goat anti-rabbit antibody coated) plate. The plate was incubated for 1 h at room temperature with vigorous shaking. Following three washes with PBS, 20 μl of cell supernatant were added to each well of the plate. The plate was then incubated for 1 h at room temperature with vigorous shaking. A pair of monoclonal antibodies to IFN-α (catalogue numbers 21100 and 21112, Stratech Scientific) were labelled with sulfo-TAG (MSD), diluted 1:1000 in assay buffer and 20 μl added to each well of the plate. The plate was further incubated for 1 h at room temperature with vigorous shaking. Following three washes with PBS, 30 μl of ×2 T buffer (MSD) was added to each well and the plate was read on an MSD Sector 6000 plate reader.
Data were normalised to internal plate controls of 1 uM resiquimod (n=16) and DMSO (n=16). pEC50 values were derived by 4-parameter curve fit with IRLS in ActivityBase, from 11-point, two-fold serial dilution of test compounds.

The subject of a further test is TNF-α. Nature of the test: Induction of TNF-α using fresh human PBMCs. As to conditions: PBMC, two donors, 24 hr incubation, percentage of 2 μM resiquimod control, read-out: mean pEC50 for induction of TNF-α (converted). As for the experimental part: (§1) Assay for the Induction of Interferon-α and TNF-α Using Fresh Human Peripheral Blood Mononuclear Cells (PBMCs)
(§2) Compounds were dissolved and serially diluted in DMSO to give 100× the required concentration range using a Biomek 2000. 1 ul of test compound was transferred into 96-well tissue culture plates using a Biomek FX. Each compound was assayed in duplicate for each donor. Each plate contained a dilution series of the TLR7/8 agonist resiquimod as standard and Column 11 contained 1 μl of 200 μM resiquimod (giving a 2 μM final concentration, used to define the approximate maximal response to resiquimod).
(§3) Blood samples from two human donors were collected into sodium heparin (10 U/ml). 25 ml volumes of whole blood were overlaid onto 15 mls Histopaque in Leucosep tubes which were centrifuged at 800 g for 20 min and the band at the plasma/histopaque interface carefully removed. The collected cells were centrifuged at 2500 rpm for 10 min and the pellet resuspended in 10 ml of media (RPMI 1640 (Low endotoxin) supplemented with 10% v/v foetal calf serum (FCS, low endotoxin) 100 U/ml penicillin G, 100 μg/ml streptomycin, 10 mM L-glutamine and 1× non-essential amino acids). A 1:20 dilution of the cells was prepared using trypan blue & the cells counted using a haemocytometer. The PBMCs were diluted to give a final concentration of 2×10^6/ml and 100 ul of this cells suspension was added to wells containing 1 μl of diluted test compound.
(§4) Incubation and Assays for Interferon-α and TNF-α
(§5) The cell preparations were incubated for 24 hr (37° C., 95% air, 5% CO2) after which a sample of the supernatant was removed using the Biomek FX and assayed for both IFN-α and TNF-α using the MSD (Mesoscale Discovery) electrochemiluminescence assay platform. The IFN-α assay was carried out similarly to that described above. The TNF-α assay was carried out as per kit instructions (Cat No K111BHB).
(§6) Cytokine released was expressed as a percentage of the 2 μM resiquimod control (column 11). This percentage was plotted against compound concentration and the pEC50 for the response determined by non-linear least squares curve fitting. For the IFN-α responses generally a 4 parameter logistic model was selected. For the TNF responses where a clear maximum response was obtained (i.e. a well defined plateau in the response was observed) then a 4 parameter model was generally used. If the upper asymptote of the curve wasn't well defined then the curve fitting was generally constrained to a maximal response of 100% (i.e. to the response to 2 μM resiquimod) or to the response of the highest concentration tested if this was greater than the resiquimod response. Some curves were bell shaped for one or both cytokines and the cytokine data on the down slope of the bell shaped response (i.e. concentrations above those giving the maximal response) were generally excluded from the fit, usually with the exception of the concentration immediately above the peak response. Curve fitting thus concentrated on the up slope of the dose response curve.

In test [2] the test system is Interferon-α. Nature of the test: Induction of Interferon-α using fresh human PBMCs. Conditions: PBMC, two donors, 24 hr incubation, percentage of 2 μM resiquimod control, read-out: mean pEC50 for induction of IFN-α (converted). Here is the method:
as §1, §2, §3, §4, §5, §6

Structures are written as SMILES.

Turning to `CCCCOc1nc(N)c2[nH]c(=O)n(CCCNCC3CCCO3)c2n1` (centres unmarked) [Example 3, 6-Amino-2-(butyloxy)-9-{3-[(tetrahydro-2-furanylmethyl)amino]propyl}-7,9-dihydro-8H-purin-8-one], the EC50 was less than 10 µM in the test on Interferon-α [1], more than 10 µM in the test with TNF-α and less than 1 µM in the test with Interferon-α [2]. `CCCCOc1nc(N)c2[nH]c(=O)n(CCCNCC3CCOCC3)c2n1` [Example 8, 6-Amino-2-(butyloxy)-9-{3-[(tetrahydro-2H-pyran-4-ylmethyl)amino]propyl}-7,9-dihydro-8H-purin-8-one]: the results for the EC50 with Interferon-α [1], with TNF-α and with Interferon-α [2] were less than 10 µM, more than 10 µM and less than 1 µM, respectively. Take `CCCCOc1nc(N)c2[nH]c(=O)n(CCCN[C@@H]3CCCO3)c2n1` [Example 2, 6-Amino-2-(butyloxy)-9-{3-[(2S)-tetrahydro-2-furanylamino]propyl}-7,9-dihydro-8H-purin-8-one]: the EC50 in the test with Interferon-α [1] is less than 10 µM. Same read-out and setting: the same measure for `CCCCNc1nc(N)c2[nH]c(=O)n(CCCNCC3CCCO3)c2n1` (centres unmarked) [Example 15, 6-Amino-2-(butylamino)-9-{3-[(tetrahydro-2-furanylmethyl)amino]propyl}-7,9-dihydro-8H-purin-8-one]: less than 10 µM. On to `CCCCNc1nc(N)c2[nH]c(=O)n(CCCNCCC3CCCO3)c2n1` (centres unmarked) [Example 16, 6-Amino-2-(butylamino)-9-(3-{[2-(tetrahydro-2-furanyl)ethyl]amino}propyl)-7,9-dihydro-8H-purin-8-one], for which the EC50 with Interferon-α [1] was less than 10 µM; in the test on TNF-α it was more than 10 µM; with Interferon-α [2], less than 1 µM. For `CCCCOc1nc(N)c2[nH]c(=O)n(CCCNCC3CCCCO3)c2n1` (centres unmarked) [Example 6, 6-Amino-2-(butyloxy)-9-{3-[(tetrahydro-2H-pyran-2-ylmethyl)amino]propyl}-7,9-dihydro-8H-purin-8-one], the EC50 with Interferon-α [1] is less than 10 µM. On to `CCCCOc1nc(N)c2[nH]c(=O)n(CCCNCCC3CCOCC3)c2n1` [Example 11, 6-Amino-2-(butyloxy)-9-(3-{[2-(tetrahydro-2H-pyran-4-yl)ethyl]amino}propyl)-7,9-dihydro-8H-purin-8-one], for which the EC50 in the test on Interferon-α [1] was less than 10 µM.

Regarding `CCCCNc1nc(N)c2[nH]c(=O)n(CCCNCCC3CCCCO3)c2n1` (centres unmarked) [Example 18, 6-Amino-2-(butylamino)-9-(3-{[2-(tetrahydro-2H-pyran-2-yl)ethyl]amino}propyl)-7,9-dihydro-8H-purin-8-one], in the test with Interferon-α [1], the EC50 was less than 10 µM.

In the case of `CCC[C@H](C)Oc1nc(N)c2[nH]c(=O)n(CCCNCC3CCCO3)c2n1` (stereo partly drawn) [Example 12, 6-Amino-2-{[(1S)-1-methylbutyl]oxy}-9-{3-[(tetrahydro-2-furanylmethyl)amino]propyl}-7,9-dihydro-8H-purin-8-one], the EC50 in the test on TNF-α was more than 1 µM; in the test on Interferon-α [2], less than 0.1 µM. Regarding `CCCCOc1nc(N)c2[nH]c(=O)n(CCCNCC3CCCOC3)c2n1` (centres unmarked) [Example 7, 6-Amino-2-(butyloxy)-9-{3-[(tetrahydro-2H-pyran-3-ylmethyl)amino]propyl}-7,9-dihydro-8H-purin-8-one], the EC50 in the test with Interferon-α [1] is less than 10 µM.

For `CCCCOc1nc(N)c2[nH]c(=O)n(CCCNCCC3CCCOC3)c2n1` (centres unmarked) [Example 10, 6-Amino-2-(butyloxy)-9-(3-{[2-(tetrahydro-2H-pyran-3-yl)ethyl]amino}propyl)-7,9-dihydro-8H-purin-8-one], the EC50 in the test with Interferon-α [1] was less than 10 µM. With `CCCCNc1nc(N)c2[nH]c(=O)n(CCCNCC3CCOCC3)c2n1` [Example 17, 6-Amino-2-(butylamino)-9-{3-[(tetrahydro-2H-pyran-4-ylmethyl)amino]propyl}-7,9-dihydro-8H-purin-8-one], the EC50 with Interferon-α [1] was less than 10 µM. With `CCCCOc1nc(N)c2[nH]c(=O)n(CCCNCCC3CCCCO3)c2n1` (centres unmarked) [Example 9, 6-Amino-2-(butyloxy)-9-(3-{[2-(tetrahydro-2H-pyran-2-yl)ethyl]amino}propyl)-7,9-dihydro-8H-purin-8-one], the EC50 was less than 10 µM in the test with Interferon-α [1], more than 10 µM in the test with TNF-α and less than 1 µM in the test on Interferon-α [2]. As for `CCC[C@H](C)Oc1nc(N)c2[nH]c(=O)n(CCCNCCC3CCCO3)c2n1` (stereo partly drawn) [Example 13, 6-Amino-2-{[(1S)-1-methylbutyl]oxy}-9-(3-{[2-(tetrahydro-2-furanyl)ethyl]amino}propyl)-7,9-dihydro-8H-purin-8-one], the EC50 was more than 1 µM in the test on TNF-α and less than 0.1 µM in the test on Interferon-α [2]. On to `CCC[C@H](C)Oc1nc(N)c2[nH]c(=O)n(CCCNCC3CCOCC3)c2n1` [Example 14, 6-Amino-2-{[(1S)-1-methylbutyl]oxy}-9-{3-[(tetrahydro-2H-pyran-4-ylmethyl)amino]propyl}-7,9-dihydro-8H-purin-8-one], for which the EC50 was less than 10 µM in the test with Interferon-α [1], more than 1 µM in the test on TNF-α and less than 0.1 µM with Interferon-α [2]. On to `CCCCOc1nc(N)c2[nH]c(=O)n(CCCNCCC3CCCO3)c2n1` (centres unmarked) [Example 5, 6-Amino-2-(butyloxy)-9-(3-{[2-(tetrahydro-2-furanyl)ethyl]amino}propyl)-7,9-dihydro-8H-purin-8-one], for which the EC50 was less than 10 µM with Interferon-α [1], more than 10 µM in the test with TNF-α and less than 1 µM in the test on Interferon-α [2]. Turning to `CCCCOc1nc(N)c2[nH]c(=O)n(CCCN[C@H]3CCCO3)c2n1` [Example 1, 6-Amino-2-(butyloxy)-9-{3-[(2R)-tetrahydro-2-furanylamino]propyl}-7,9-dihydro-8H-purin-8-one], in the test on Interferon-α [1], the EC50 is less than 10 µM.

On to `CCCCOc1nc(N)c2[nH]c(=O)n(CCCNCC3CCOC3)c2n1` (centres unmarked) [Example 4, 6-Amino-2-(butyloxy)-9-{3-[(tetrahydro-3-furanylmethyl)amino]propyl}-7,9-dihydro-8H-purin-8-one], for which, in the test with Interferon-α [1], the EC50 was less than 10 µM.

Values taken from patent US8575181B2, “Purine derivatives for use in the treatment of allergic, inflammatory and infectious diseases” (GlaxoSmithKline LLC, priority 2008, dated 2013).
